Consider 34 compounds from patent US20150291598A1 (NOVARTIS AG, priority 2012, published 2015).

Where two headings read alike, the source gives them in different places. Where only a bound is given, the exact number is not on record here.

The assay has as its system P. falciparum (NF54 or 3D7 strain). Briefly: Assay for P. falciparum proliferation in infected human blood cells (SYBR Green). The class given is cell-based, Plasmodium falciparum. Particulars: Plasmodium falciparum, Erythrocyte. The gist of the method: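 Infected erythrocytes (NF54 or 3D7; final 2.5% hematocrit, 0.3% parasitemia) were incubated with compounds for 72 h at 37 °C in low oxygen (3% O2, 4% CO2, 93% N2).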

Setting [1] is: 72 h, NF54 or 3D7 infected human erythrocytes, 72 hours, read-out: EC50 (nM), inhibitory efficacy in delaying P. falciparum proliferation in infected human blood cells.

For `CN(C(=O)c1cn2c(-c3ccc(C(F)(F)F)nc3)cnc2cn1)c1ccc(Cl)nc1` [Compound 413, N-(6-chloropyridin-3-yl)-N-methyl-3-[6-(trifluoromethyl)pyridin-3-yl]imidazo[1,2-a]pyrazine-6-carboxamide], the EC50 under setting [1] amounted to 7400 nM.

In the case of `CC(C)(NC(=O)c1cn2c(-c3ccc(C(F)(F)F)cc3)cnc2cn1)c1ccc(F)cc1` [Compound 414, N-[2-(4-fluorophenyl)propan-2-yl]-3-[4-(trifluoromethyl)phenyl]imidazo[1,2-a]pyrazine-6-carboxamide], the EC50 under setting [1] was above 7910 nM.

For `COC(=O)Nc1ccc(-c2cnc3cnc(C(=O)N(C)c4ccc(C)cn4)cn23)cn1` [Compound 415, methyl N-(5-{6-[methyl(5-methylpyridin-2-yl)carbamoyl]imidazo[1,2-a]pyrazin-3-yl}pyridin-2-yl)carbamate], the EC50 under setting [1] was above 10000 nM.

In the case of `CN(C(=O)c1cn2c(-c3ccc(C(F)(F)F)cc3)cnc2cn1)c1cccc2nncn12` [Compound 416, N-methyl-N-{[1,2,4]triazolo[4,3-a]pyridin-5-yl}-3-[4-(trifluoromethyl)phenyl]imidazo[1,2-a]pyrazine-6-carboxamide], the EC50 under setting [1] was above 10000 nM.

For `CN(C(=O)c1ccc(C(C)(C)C)cc1)c1cn2c(-c3ccc(C(F)(F)F)cc3)cnc2cn1` [Compound 417, 4-tert-butyl-N-methyl-N-{3-[4-(trifluoromethyl)phenyl]imidazo[1,2-a]pyrazin-6-yl}benzamide], the EC50 under setting [1] was above 10000 nM.

`CN(C)c1cccc(-c2cnc3cnc(C(=O)N(C)c4ccc(Cl)nc4)cn23)c1` [Compound 418, N-(6-chloropyridin-3-yl)-3-[3-(dimethylamino)phenyl]-N-methylimidazo[1,2-a]pyrazine-6-carboxamide]: the EC50 under setting [1] was above 10000 nM.

Turning to `CN(C(=O)c1cn2c(-c3ccc(NS(C)(=O)=O)cc3)cnc2cn1)c1ccc(Cl)nc1` [Compound 419, N-(6-chloropyridin-3-yl)-3-(4-methanesulfonamidophenyl)-N-methylimidazo[1,2-a]pyrazine-6-carboxamide], the EC50 under setting [1] was above 8270 nM.

As for `Cc1ncccc1N(C)C(=O)c1cn2c(-c3ccc(C(F)(F)F)cc3)cnc2cn1` [Compound 420, N-methyl-N-(2-methylpyridin-3-yl)-3-[4-(trifluoromethyl)phenyl]imidazo[1,2-a]pyrazine-6-carboxamide], the EC50 under setting [1] is above 10000 nM.

As to `CN(C(=O)c1cn2c(-c3ccc(F)cc3)cnc2cn1)c1ccc(Cl)nc1` [Compound 422, N-(6-chloropyridin-3-yl)-3-(4-fluorophenyl)-N-methylimidazo[1,2-a]pyrazine-6-carboxamide], the EC50 under setting [1] is above 10000 nM.

Take `CN(C(=O)c1cn2c(-c3ccc(C(F)(F)F)cc3)cnc2cn1)c1nc(-c2ccccc2)cs1` [Compound 423, N-methyl-N-(4-phenyl-1,3-thiazol-2-yl)-3-[4-(trifluoromethyl)phenyl]imidazo[1,2-a]pyrazine-6-carboxamide]: the EC50 under setting [1] is above 9660 nM.

For `Cc1n[nH]c2ccc(-c3cnc4cnc(C(=O)N(C)c5ccc(C#N)cc5)cn34)cc12` [Compound 424], the EC50 under setting [1] was 291 nM.

In the case of `CC(=O)c1ccc(N(C)C(=O)c2cn3c(-c4ccc(C(F)(F)F)cc4)cnc3cn2)cc1` [Compound 425, N-(4-acetylphenyl)-N-methyl-3-[4-(trifluoromethyl)phenyl]imidazo[1,2-a]pyrazine-6-carboxamide], the EC50 under setting [1] came out at 1020 nM.

Consider `O=C1CCCCN1Cc1cn2c(-c3ccc(C(F)(F)F)cc3)cnc2cn1` [Compound 426, 1-({3-[4-(trifluoromethyl)phenyl]imidazo[1,2-a]pyrazin-6-yl}methyl)piperidin-2-one], for which the EC50 under setting [1] was found to be 1950 nM.

For `CN(C)C(=O)c1ccc(-c2cnc3cnc(C(=O)N(C)c4ccc(C#N)cc4)cn23)cc1` [Compound 427, N-(4-cyanophenyl)-3-[4-(dimethylcarbamoyl)phenyl]-N-methylimidazo[1,2-a]pyrazine-6-carboxamide], the EC50 under setting [1] was above 9800 nM.

Consider `CN(C(=O)c1cn2c(-c3ccc4[nH]ccc4c3)cnc2cn1)c1ccc(C#N)cc1` [Compound 428, N-(4-cyanophenyl)-3-(1H-indol-5-yl)-N-methylimidazo[1,2-a]pyrazine-6-carboxamide], for which the EC50 under setting [1] was 276 nM.

For `CN(C(=O)c1cn2c(-c3ccc(OC(F)F)cc3)cnc2cn1)c1ccc(Cl)nc1` [Compound 429, N-(6-chloropyridin-3-yl)-3-[4-(difluoromethoxy)phenyl]-N-methylimidazo[1,2-a]pyrazine-6-carboxamide], the EC50 under setting [1] is 313 nM.

`COc1cc(F)ccc1N(C)C(=O)c1cn2c(-c3ccc(C(F)(F)F)cc3)cnc2cn1` [Compound 430, N-(4-fluoro-2-methoxyphenyl)-N-methyl-3-[4(trifluoromethyl)phenyl]imidazo[1,2-a]pyrazine]: the EC50 under setting [1] came to 17 nM.

As for `COc1ccc(-c2cnc3cnc(C(=O)N(C)c4ccc(F)c(F)c4)cn23)cc1` [Compound 431, N-(3,4-difluorophenyl)-3-(4-methoxyphenyl)-N-methylimidazo[1,2-a]pyrazine-6-carboxamide], the EC50 under setting [1] was determined as 82 nM.

On to `Cc1ccc(-c2cnc3cnc(C(=O)N(C)c4ccc(Cl)cc4)cn23)cc1` [Compound 432, N-(4-chlorophenyl)-N-methyl-3-(4-methylphenyl)imidazo[1,2-a]pyrazine-6-carboxamide], for which, under setting [1], the EC50 was 79 nM.

With `CN(C(=O)c1cn2c(-c3ccc(OC(F)F)cc3)cnc2cn1)c1ccc(F)cc1` [Compound 433, 3-[4-(difluoromethoxy)phenyl]-N-(4-fluorophenyl)-N-methylimidazo[1,2-a]pyrazine-6-carboxamide], under setting [1], the EC50 was 31 nM.

For `CN(C(=O)c1cn2c(-c3ccc(C(F)(F)F)cc3)cnc2cn1)c1ncc(Br)cn1` [Compound 434, N-(5-bromopyrimidin-2-yl)-N-methyl-3-[4-(trifluoromethyl)phenyl]imidazo[1,2-a]pyrazine-6-carboxamide], the EC50 under setting [1] amounted to 7090 nM.

In the case of `CN(C(=O)c1cn2c(-c3ccc(C(F)(F)F)cc3)cnc2cn1)c1ccc(Cl)cn1` [Compound 435, N-(5-chloropyridin-2-yl)-N-methyl-3-[4-(trifluoromethyl)phenyl]imidazo[1,2-a]pyrazine-6-carboxamide], the EC50 under setting [1] was determined as 214 nM.

Take `CC(C)Oc1ccc(N(C)C(=O)c2cn3c(-c4ccc(C(F)(F)F)cc4)cnc3cn2)cc1` [Compound 436, N-methyl-N-[4-(propan-2-yloxy)phenyl]-3-[4-(trifluoromethyl)phenyl]imidazo[1,2-a]pyrazine-6-carboxamide]: the EC50 under setting [1] worked out at 9300 nM.

For `CN(C)c1ccc(-c2cnc3cnc(CN(C)c4ccc(C#N)cc4)cn23)cc1` [Compound 437, 4-[({3-[4-(dimethylamino)phenyl]imidazo[1,2-a]pyrazin-6-yl}methyl)(methyl)amino]benzonitrile], the EC50 under setting [1] turned out to be 176 nM.

As for `CN(C)c1cccc(-c2cnc3cnc(C(=O)N(C)c4ccc(C#N)cc4)cn23)c1` [Compound 438, N-(4-cyanophenyl)-3-[3-(dimethylamino)phenyl]-N-methylimidazo[1,2-a]pyrazine-6-carboxamide], the EC50 under setting [1] was above 10000 nM.

Turning to `CN(C(=O)c1cn2c(-c3ccc(Cl)nc3)cnc2cn1)c1ccc(C#N)cc1` [Compound 439, 3-(6-chloropyridin-3-yl)-N-(4-cyanophenyl)-N-methylimidazo[1,2-a]pyrazine-6-carboxamide], under setting [1], the EC50 is 2760 nM.

For the compound `COc1cccc(N(C)C(=O)c2cn3c(-c4ccc(C(F)(F)F)cc4)cnc3cn2)c1` [Compound 440, N-(3-methoxyphenyl)-N-methyl-3-[4-(trifluoromethyl)phenyl]imidazo[1,2-a]pyrazine-6-carboxamide], the EC50 under setting [1] turned out to be 140 nM.

In the case of `COc1ccc(-c2cnc3cnc(C(=O)N(C)c4ccc(C#N)cc4)cn23)c(C)c1` [Compound 441, N-(4-cyanophenyl)-3-(4-methoxy-2-methylphenyl)-N-methylimidazo[1,2-a]pyrazine-6-carboxamide], under setting [1], the EC50 turned out to be 6500 nM.

Turning to `O=C(Nc1nc2cccc(Cl)c2s1)c1cn2c(-c3ccc(C(F)(F)F)cc3)cnc2cn1` [Compound 442, N-(7-chloro-1,3-benzothiazol-2-yl)-3-[4-(trifluoromethyl)phenyl]imidazo[1,2-a]pyrazine-6-carboxamide], the EC50 under setting [1] was found to be 604 nM.

Consider `O=C(Nc1ccc(C(F)(F)F)cc1)c1cn2c(-c3ccc(C(F)(F)F)cc3)cnc2cn1` [Compound 445, N,3-bis[4-(trifluoromethyl)phenyl]imidazo[1,2-a]pyrazine-6-carboxamide], for which the EC50 (72 h, read-out: EC50 (nM), inhibitory efficacy in delaying P. falciparum proliferation in infected human blood cells) is above 10000 nM.

For `CNc1nnc(-c2ccc(-c3cnc4cnc(C(=O)N(C)c5ccc(C#N)cc5)cn34)cc2)s1` [Compound 476, N-(4-cyanophenyl)-N-methyl-3-{4-[5-(methylamino)-1,3,4-thiadiazol-2-yl]phenyl}imidazo[1,2-a]pyrazine-6-carboxamide], the EC50 under setting [1] was found to be 9 nM.

For the compound `CNc1nnc(-c2ccc(-c3cnc4cnc(C(=O)N(C)c5ccc(F)cc5)cn34)cc2)o1` [Compound 478, N-(4-fluorophenyl)-N-methyl-3-{4-[5-(methylamino)-1,3,4-oxadiazol-2-yl]phenyl}imidazo[1,2-a]pyrazine-6-carboxamide], the EC50 runs as follows: under setting [1], 31 nM; (infected human red blood cells, read-out: EC50, P. falciparum Proliferation Assay) below 50 nM.

As for `CN(Cc1cn2c(-c3ccc(OC(F)F)cc3)cnc2cn1)c1ccc(C#N)cc1` [Compound 479, 4-[({3-[4-(difluoromethoxy)phenyl]imidazo[1,2-a]pyrazin-6-yl}methyl)(methyl)amino]benzonitrile], the EC50 under setting [1] is 35 nM.

Consider `CN(C(=O)c1cn2c(-c3ccc4c(cnn4C)c3)cnc2cn1)c1ccc(Cl)cc1` [Compound 480, N-(4-chlorophenyl)-N-methyl-3-(1-methyl-1H-indazol-5-yl)imidazo[1,2-a]pyrazine-6-carboxamide], for which the EC50 under setting [1] stood at 25 nM.
